Consider one compound from US20060167006A1, “Method of treatment” (priority 2003, published 2006).

For test [1], the system named is TAKA-1 cells and the three pancreatic cancer cell lines. Briefly: MTT cell growth assay, span over all four lines (Example 1). It counts as cell-based. The following applies: span over TAKA-1 and three pancreatic cancer cell lines. The source says:
Cell culture and proliferation assay: The following materials are purchased: FCS, RPMI and Dulbecco's modified Eagle medium (DMEM), trypsin-EDTA solution, penicillin-streptomycin solution from Biochrom K G (Berlin, Germany). All the other reagents are from Sigma Chemical Co. (St. Louis, Mo., USA). ASPC-1, MIA PaCA-2, human pancreatic cell lines are obtained from American Type Culture Collection (Rockville, Md.). Compound I is kindly provided by Novartis Pharma AG (Basel, Switzerland). T3M4 human pancreatic cell lines are a gift from Dr. R. S. Metzgar (Durham, N.C., USA). TAKA-1 immortalized Syrian golden hamster pancreatic ductal cells are a gift from Prof. P. Pour (University of Nebraska, Omaha, Nebr., USA). Human pancreatic cancer cell lines are routinely grown in DMEM (MIA-PaCA-2) or RPMI (ASPC-1, T3M4) supplemented with 10% FCS, 100 U/ml penicillin and 100 μg/ml streptomycin (complete medium).
TAKA-1 cells are grown in RPMI supplemented with 10% FCS, 100 U/ml penicillin and 100 μg/ml streptomycin. Cells are seeded overnight at a density of 5000 cells/well in 96-well plates and the proliferation assay is performed as described above. […] Cellular MTT is solubilized with acidic isopropanol and the optical density is measured at 570 nm using a plate reader (Dynatech MR 7000). […]
Statistical analysis: Results are expressed as mean±SD. […]
(Formazan colour is commonly taken as a measure of viable cells.)

Test [2] relates to Colo-357 cells. Briefly: GI50 by MTT assay, Colo-357 (Example 2). It counts as cell-based. The following applies: Homo sapiens, COLO357, Colo-357, complete medium (10% FBS), 48 h, read-out: GI50 concentration. An excerpt: (§1) Material and Methods: RPMI-1640 DMEM, trypsin-EDTA, and penicillin-streptomycin are purchased from Invitrogen (Karlsruhe, Germany); FBS from PAN Biotech (Aidenbach, Germany); human recombinant PDGF, IGF-1 and FGF-2 from R&D Systems (Abingdon, United Kingdom), and EGF from Upstate Biotechnology (Hamburg, Germany). Phospho-PDGFR-beta (tyr857) and P-EGFR (tyr1173) polyclonal antibodies are purchased from Santa Cruz Biotechnology, Inc. (Santa Cruz, Calif., USA). Phospho-p44/42 MAPK (Thr202/Tyr204) antibodies are purchased from Cell Signaling Technology (Frankfurt, Germany), anti-rabbit IgG HRPO-linked antibodies and ECL immunoblotting detection reagents from Amersham Biosciences (Amersham Life Science, Amersham, UK), and anti-goat IgG-HPRO peroxidase linked antibodies from Santa Cruz Biotechnology, Inc. (Santa Cruz, Calif., USA). Complete mini-EDTA-free protease inhibitor cocktail tablets and Annexin-V-Fluos are purchased from Roche GmbH (Mannheim, Germany). All other reagents are from Sigma Chemical Company (Taufkirchen, Germany).
(§2) Cell culture and MTT assay: Human pancreatic cancer cell lines are routinely grown in DMEM (Colo-357 and Mia-PaCa-2) or RPMI (Aspc-1, BxPc-3, Capan-1, and T3M4) supplemented with 10% FBS, 100 U/ml penicillin, and 100 μg/ml streptomycin (complete medium). […] Formazan products are solubilized with acidic isopropanol, and the optical density is measured at 570 nm. […]

In test [3] the test system is Mia-PaCa-2 cells. Briefly: GI50 by MTT assay, Mia-PaCa-2 (Example 2). It counts as cell-based. To be noted: Homo sapiens, read-out: GI50 concentration.
From the text: as §1, §2

Test [4] has as its system T3M4 cells. Briefly: Propidium iodide staining of cell death, T3M4. It counts as cell-based, human. To be noted: T3M4, Compound I at GI50, 1% FBS medium; control 5.7% ±2.8%. The source says: The resulting DNA histograms are interpreted using the Cell Quest Pro software (Becton Dickinson and Company, New York, USA).
For test [5], the system named is Mia-PaCa-2 cells. Briefly: Growth factor-induced proliferation (MTT), Mia-PaCa-2. It counts as cell-based, human. To be noted: Mia-PaCa-2, IGF-1 plus Compound I at GI50, 72 hours, MTT. As for the experimental part:
Cell culture and MTT assay: Human pancreatic cancer cell lines are routinely grown in DMEM (Colo-357 and Mia-PaCa-2) or RPMI (Aspc-1, BxPc-3, Capan-1, and T3M4) supplemented with 10% FBS, 100 U/ml penicillin, and 100 μg/ml streptomycin (complete medium). To assess cell proliferation, the MTT test is employed. […] After 48 or 72 hours of incubation, 3-(4,5-methylthiazol-2-yl)-2,5-diphenyl-tetrazolium bromide (MTT) is added (50 μg/well) for 4 hours. Formazan products are solubilized with acidic isopropanol, and the optical density is measured at 570 nm. […] All experiments are performed in triplicate.
EGF-induced proliferation of both Mia-PaCa-2 and T3M4 cell lines in a dose-dependent manner is seen with maximal effects of +72% ±7.5% (Mia-PaCa-2) and +52% ±23% (T3M4). […] FGF-2 markedly stimulates cell growth in Mia-PaCa-2 cell lines with maximal effects of +79% ±6%, and only slightly stimulated T3M4 cell lines, with maximal effects of +7% ±4%. […] Both cell lines are less sensitive to IGF-1 stimulation compared with EGF and FGF-2, with maximal effects of +24% ±2% in Mia-PaCa-2 and +17% ±4% in. T3M4.

For test [6], the system named is MAPK. Briefly: Western blot of MAPK phosphorylation in growth factor-conditioned cells. It counts as cell-based, human. The following applies: growth factor-conditioned Mia-PaCa-2 and T3M4 cells, Western blot. As for the experimental part:
(§3) Western blot analysis: Cell culture monolayers are washed twice with ice-cold PBS and lysed with buffer containing Tris-HCl (50 mM, pH 7.4), NP-40 (1%), Na-deoxycholate (0.25%), NaCl (150 mM), EDTA (1 mM), PMSF (1 mM), Na3VO4 (1 mM), NaF (1 mM) and one tablet of complete mini-EDTA-free protease inhibitor cocktail (in 10 ml buffer). Protein concentration is determined by the BCA protein assay (Pierce Chemical Co., Rockford, Ill., USA). 30 μg of cell lysates are separated on SDS-polyacrylamide gels and electroblotted onto nitrocellulose membranes. Membranes are then incubated in blocking solution (5% nonfat-milk in 20 mM Tris-HCl, 150 mM NaCl, 0.1% Tween-20) (TBS-T), followed by incubation with the indicated antibodies at 4° C. overnight. The membranes are then washed in TBS-T and incubated with HRPO-conjugated secondary antibodies for 1 hour at room temperature. Antibody detection is performed with an enhanced chemiluminescence reaction. Statistical analysis: Results are expressed as mean±SEM. For statistical analysis, the Student's t-test is used. Significance is defined as p<0.05.

The target in test [7] is T1, EGFR (Homo sapiens, UniProt P00533).
T1 construct: endogenous in cells; host or cells: Mia-PaCa-2 and T3M4 pancreatic cancer cells
T1 sequence (P00533 25-1210): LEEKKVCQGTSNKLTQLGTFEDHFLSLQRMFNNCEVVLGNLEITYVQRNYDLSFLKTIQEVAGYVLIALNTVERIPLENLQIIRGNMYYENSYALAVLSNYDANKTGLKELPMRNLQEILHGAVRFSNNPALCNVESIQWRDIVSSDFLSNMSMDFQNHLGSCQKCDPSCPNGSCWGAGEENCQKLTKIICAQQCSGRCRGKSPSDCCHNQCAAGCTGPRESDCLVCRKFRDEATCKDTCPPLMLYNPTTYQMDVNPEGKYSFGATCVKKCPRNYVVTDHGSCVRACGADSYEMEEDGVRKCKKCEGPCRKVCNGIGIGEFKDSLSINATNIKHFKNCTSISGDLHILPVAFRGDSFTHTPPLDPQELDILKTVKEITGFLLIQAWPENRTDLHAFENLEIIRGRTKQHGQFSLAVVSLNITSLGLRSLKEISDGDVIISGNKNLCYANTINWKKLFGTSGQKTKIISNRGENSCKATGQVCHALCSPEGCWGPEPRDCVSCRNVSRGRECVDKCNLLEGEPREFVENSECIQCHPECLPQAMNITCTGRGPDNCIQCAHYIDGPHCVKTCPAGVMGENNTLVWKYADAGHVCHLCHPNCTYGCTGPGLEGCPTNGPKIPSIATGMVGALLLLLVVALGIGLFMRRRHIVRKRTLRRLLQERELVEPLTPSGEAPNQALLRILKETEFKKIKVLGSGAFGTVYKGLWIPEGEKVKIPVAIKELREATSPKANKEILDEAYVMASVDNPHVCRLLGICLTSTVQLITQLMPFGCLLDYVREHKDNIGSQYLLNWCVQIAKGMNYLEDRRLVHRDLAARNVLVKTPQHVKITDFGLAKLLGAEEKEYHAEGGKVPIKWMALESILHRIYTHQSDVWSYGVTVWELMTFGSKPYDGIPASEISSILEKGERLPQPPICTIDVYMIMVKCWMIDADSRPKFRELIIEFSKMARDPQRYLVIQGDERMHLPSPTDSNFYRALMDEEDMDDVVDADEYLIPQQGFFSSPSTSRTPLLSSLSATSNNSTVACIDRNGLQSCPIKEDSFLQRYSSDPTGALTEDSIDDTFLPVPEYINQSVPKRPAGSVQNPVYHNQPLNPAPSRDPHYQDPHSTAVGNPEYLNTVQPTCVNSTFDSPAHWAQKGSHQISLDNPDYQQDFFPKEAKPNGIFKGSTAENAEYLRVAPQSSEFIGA
The test can be described thus: Western blot of EGFR phosphorylation in growth factor-conditioned cells. It counts as cell-based. To be noted: growth factor-conditioned Mia-PaCa-2 and T3M4 cells. As to the method:
as §3
A general note: A western blot detects proteins with antibodies after separation by electrophoresis.

Test [8] concerns colorectal cancer (HT29). The following applies: other reported cancer cells, read-out: GI50 concentration; cited from earlier work.

Read-outs that look alike come from different tables or passages of the source.

With `Cc1ccc(NC(=O)c2ccc(CN3CCN(C)CC3)cc2)cc1Nc1nccc(-c2cccnc2)n1` [Compound I], the “Minimal threshold effects on cell growth” value in test [1] (5 μM Compound I, p>0.05) is recorded as −4% to −9. The “Maximal inhibitory effects on cell growth” value in test [1] (75 µM Compound I, p<0.001) was −77% to −90. In addition, the GI50 in test [2] was 17 µM; in test [3] (Mia-PaCa-2, complete medium (10% FBS), 48 h, MTT), 26 µM; in test [3] (Mia-PaCa-2, low serum conditions (1% FCS)), 9 µM; in test [8], 6 µM. In addition, the “Cell death by propidium iodide staining” value in test [4] stood at 26.8% +16.5. Also, in test [5], the “Inhibitory effect on IGF-1-induced proliferation” value is on record as “no significant inhibitory effects”. Moreover, the “Inhibition of MAPK activation” value in test [6] is recorded as “does not inhibit activation”. The “Inhibition of EGFR activation” value in test [7] is “does not inhibit activation”.
